Patent publication US20160274120A1, “METHODS OF DETERMINING WHETHER THE WNT SIGNALING PATHWAY IS UPREGULATED IN A TUMOR” (ICAHN SCHOOL OF MEDICINE AT MOUNT SINAI, priority 2009, published 2016)

Experiments:
Assay type in all cases: cell-based, human
[1] = system: TCF reporter activity; assay: TCF mediated luciferase reporter activity (TOP/FOP) in NSCLC cell lines
Protocol: 24 hours before infection, stable reporter cell lines expressing TOP or FOP TCF luciferase and renilla luciferase were plated in 6 well plates at I×IO^5 cells/well. The following day cells were infected with lentiviruses expressing different Wnt antagonists, selected with 2 μg/ml puromycin for 3 days, lysed and processed for luciferase reporter assay using the dual luciferase reporter Kit (Promega) according to the manufacturer's protocol. Luciferase reporter activity was calculated by dividing the ratio TOP/RL by the FOP/RL ratio. Results were normalized to the results with vector transduced cultures.
analysis, cells were co-infected with TOP or FOP firefly luciferase mixed with a lentivirus expressing renilla luciferase (RL) used to normalize for infection efficiency (1:20-1:40 ratio). To assess the effects of FRP1 and DKK1 on TCF luciferase reporter activity, stable reporter cell lines were plated in 6 well plates and infected with vector, FRP1 or DKK1 lentiviruses. Cells were selected for 3 days with puromycin, lysed and processed for dual luciferase analysis. To generate stable inducible lines, cells were infected consecutively with tetracycline trans-activator (tTa) expressing lentivirus, selected for two weeks with 5-10 μg/ml blasticidin, followed by a second infection with lentiviruses expressing inducible FRP1, DKK1, DNTCF-4 or DNTCF-4-mOrange or empty vector, and selected for 4-7 days in 2 μg/ml puromycin in the presence of 10 ng/ml doxycycline. For induction of the antagonists, cells were trypsinized, washed with PBS and plated into 10 cm plates in the presence or absence of doxycyclin. Control cells expressing tTa or empty vector were processed in the same way. All infections were performed for 16 hr in the presence of 8 μg/ml polybrene.

[2] = system: axin2; assay: Real time PCR quantification of axin2 mRNA expression in NSCLC cells
Protocol: (§1) Total RNA was isolated from cells using the Trizol Reagent (Invitrogen) according to the manufacturer's protocol. Semi-quantitative RT-PCR screen was performed using One Step RT-PCR Kit (Invitrogen) according to the manufacturer's protocol. PCR products were separated on 1% agarose gel. 5 μg total RNA was reverse transcribed using Superscript II reverse transcriptase (Invitrogen). Quantitative PCR was performed using SybrGreen 2× master mix (Roche) on a MJ Opticon or Stratagene MxPro3005. 50 ng cDNA were amplified as follows: 94° C. for 15 min, 94° C. for 15 s, 60° C. for 30 s, 72° C. for 1 min. Steps 2 through 4 were repeated for 40 cycles. Each reaction was performed in duplicate, and results of 3 independent experiments were used for statistical analysis. Relative mRNA expression levels were quantified using the ΔΔC(t) method (Pfaffl, 2001). Results were normalized to those for TATA Binding Protein (TBP). Primer sequences can be found in Tables 4 and 5.

[3] = system: Wnt2; assay: shRNA knockdown quantification of Wnt2 mRNA; conditions: H23 cells, lentiviral shRNA
From the text: (§2) An shRNA construct targeting human Wnt2 was obtained from Open Biosystems. The 21 bp sequence was 5′-[…]-3′ (SEQ ID NO: 1). An shRNA construct targeting GFP containing 21 bp sequence 5′ […]-3′ (SEQ ID NO: 2), was obtained from Addgene. An shRNA construct targeting human Wnt3a was generated and had the following sequence 5′-GGCGTGGCTTCTGCAGAA-3′ (SEQ ID NO: 61). Viruses were produced in 293T cells using FuGENE 6 (Roche) as described above.
as §1

[4] = system: Wnt3a; assay: shRNA knockdown quantification of Wnt3a mRNA; conditions: H1819 cells, lentiviral shRNA
From the text: as §2, §1

Substance	TCF mediated luciferase reporter activity ([1]; H23 cells, Wnt2 knockdown)	axin2 expression ([2]; H23 cells, Wnt2 knockdown)	knock down of Wnt2 mRNA expression [3] [%]	TCF mediated luciferase reporter activity ([1]; H1819 cells, Wnt3a knockdown)	knock down of Wnt3a mRNA expression [4] [%]	axin2 expression ([2]; H1819 cells, Wnt3a knockdown)
Wnt2 shRNA: shRNA construct targeting human Wnt2 from Open Biosystems, 5′-GCTCATGTACTCTCAGGACAT-3′ (SEQ ID NO: 1) (GCTCATGTACTCTCAGGDCAT; chemistry not fully specified) [reference compound]	significant decrease	significant decrease	80			
Wnt3a shRNA: shRNA construct targeting human Wnt3a, 5′-GGCGTGGCTTCTGCAGAA-3′ (SEQ ID NO: 61) [reference compound]				significant decrease	70	significant decrease
